Test results reported in PMC5909127, “Optimization of a “bump-and-hole” approach to allele-selective BET bromodomain inhibition” (Chemical Science, 2018).

Molecular target: BRD3 BD1 L/V (Homo sapiens, UniProt Q15059, L70V)
Sequence (Q15059 24-144 L70V limits assumed): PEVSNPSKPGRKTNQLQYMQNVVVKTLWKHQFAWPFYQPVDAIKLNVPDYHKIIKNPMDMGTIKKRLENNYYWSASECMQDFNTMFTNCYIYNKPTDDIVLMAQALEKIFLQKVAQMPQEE
Test: competitive AlphaLISA
Assay type: binding
Conditions: not given
Compound `CCN(CC)C(=O)[C@H](C)[C@@H]1N=C(c2ccc(Cl)cc2)c2cc(OC)ccc2-n2c(C)nnc21` (relative stereo) [Compound 19] has an IC50 of 0.398 µM.
Compound `CCNC(=O)[C@H](CC)[C@@H]1N=C(c2ccc(Cl)cc2)c2ccc(OC)cc2-n2c(C)nnc21` (relative stereo) [Compound 22] has an IC50 of 3.16 µM.

Molecular target: BRDT BD2 WT (Homo sapiens, UniProt Q58F21)
Test: competitive AlphaLISA
Assay type: binding
Conditions: not given
For `CCN(CC)C(=O)[C@H](C)[C@@H]1N=C(c2ccc(Cl)cc2)c2cc(OC)ccc2-n2c(C)nnc21` (relative stereo) [Compound 19], the IC50 was 25.1 µM.
`CCNC(=O)[C@H](CC)[C@@H]1N=C(c2ccc(Cl)cc2)c2ccc(OC)cc2-n2c(C)nnc21` (relative stereo) [Compound 22] showed an IC50 of over 100 µM.

Molecular target: BRD2 BD2 L/V (Homo sapiens, UniProt P25440, L383V)
Sequence (P25440 344-455 L383V): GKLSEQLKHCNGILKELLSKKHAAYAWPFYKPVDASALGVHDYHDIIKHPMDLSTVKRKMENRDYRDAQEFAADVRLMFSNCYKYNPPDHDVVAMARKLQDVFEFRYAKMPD
Test: competitive AlphaLISA
Assay type: binding
Conditions: not given
With `CCN(CC)C(=O)[C@H](C)[C@@H]1N=C(c2ccc(Cl)cc2)c2cc(OC)ccc2-n2c(C)nnc21` (relative stereo) [Compound 19] the IC50 was 1 µM.
Work on `CCNC(=O)[C@H](CC)[C@@H]1N=C(c2ccc(Cl)cc2)c2ccc(OC)cc2-n2c(C)nnc21` (relative stereo) [Compound 22] yielded an IC50 of 7.94 µM.

Molecular target: BRD3 BD2 WT (Homo sapiens, UniProt Q15059)
Sequence (Q15059 306-416): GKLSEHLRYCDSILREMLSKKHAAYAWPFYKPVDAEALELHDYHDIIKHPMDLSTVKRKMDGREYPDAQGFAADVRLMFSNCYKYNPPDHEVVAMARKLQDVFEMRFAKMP
Test: competitive AlphaLISA
Assay type: binding
Conditions: not given
For `CCNC(=O)[C@H](CC)[C@@H]1N=C(c2ccc(Cl)cc2)c2ccc(OC)cc2-n2c(C)nnc21` (relative stereo) [Compound 22], the IC50 was over 100 µM.

Test system: L/V BET bromodomains (BD1 and BD2 of BRD2, BRD3 and BRD4)
Test: competitive AlphaLISA (Bio-JQ1 displacement)
Assay type: binding, human
Conditions: L/V minus WT
In the case of `Cc1sc2c(c1C)C(c1ccc(Cl)cc1)=N[C@@H](CC(=O)OC(C)(C)C)c1nnc(C)n1-2` [(+)JQ1, reference compound], the “AlphaLISA pIC50 ± SD Δ” value is reported as “–0.1 ± 0.1”.
For `CCN(CC)C(=O)[C@H](C)[C@@H]1N=C(c2ccc(Cl)cc2)c2cc(OC)ccc2-n2c(C)nnc21` (relative stereo) [Compound 19], the “AlphaLISA pIC50 ± SD Δ” value was 1.2 ± 0.2.
For `CCNC(=O)[C@H](CC)[C@@H]1N=C(c2ccc(Cl)cc2)c2ccc(OC)cc2-n2c(C)nnc21` (relative stereo) [Compound 22], the “AlphaLISA pIC50 ± SD Δ” value was over 1.2.

Same assay, conditions: mean and SD of all somatic bromodomains; active enantiomer concentration
In the case of `CCN(CC)C(=O)[C@H](C)[C@@H]1N=C(c2ccc(Cl)cc2)c2cc(OC)ccc2-n2c(C)nnc21` (relative stereo) [Compound 19], the “AlphaLISA pIC50 ± SD L/V” value is reported as 6.1 ± 0.2.
With `CCNC(=O)[C@H](CC)[C@@H]1N=C(c2ccc(Cl)cc2)c2ccc(OC)cc2-n2c(C)nnc21` (relative stereo) [Compound 22] the “AlphaLISA pIC50 ± SD L/V” value was 5.2 ± 0.2.

Molecular target: BRDT BD1 WT (Homo sapiens, UniProt Q58F21)
Test: competitive AlphaLISA
Assay type: binding
Conditions: not given
`CCN(CC)C(=O)[C@H](C)[C@@H]1N=C(c2ccc(Cl)cc2)c2cc(OC)ccc2-n2c(C)nnc21` (relative stereo) [Compound 19] gave an IC50 of 39.8 µM.
In the case of `CCNC(=O)[C@H](CC)[C@@H]1N=C(c2ccc(Cl)cc2)c2ccc(OC)cc2-n2c(C)nnc21` (relative stereo) [Compound 22], the IC50 is reported as over 100 µM.

Molecular target: BRD4 BD1 WT (Homo sapiens, UniProt O60885)
Test: competitive AlphaLISA
Assay type: binding
Conditions: AlphaLISA pIC50 Value BRD4 BD1 WT
In the case of `CCNC(=O)[C@H](CC)[C@@H]1N=C(c2ccc(Cl)cc2)c2ccc(OC)cc2-n2c(C)nnc21` (relative stereo) [Compound 22], the IC50 is reported as 63.1 µM.

Molecular target: BRDT BD1 L/V (Homo sapiens, UniProt Q58F21, L63V)
Test: competitive AlphaLISA
Assay type: binding
Conditions: not given
`CCN(CC)C(=O)[C@H](C)[C@@H]1N=C(c2ccc(Cl)cc2)c2cc(OC)ccc2-n2c(C)nnc21` (relative stereo) [Compound 19] showed an IC50 of 3.98 µM.
Compound `CCNC(=O)[C@H](CC)[C@@H]1N=C(c2ccc(Cl)cc2)c2ccc(OC)cc2-n2c(C)nnc21` (relative stereo) [Compound 22] has an IC50 of 20 µM.

Same assay, conditions: read-out: AlphaLISA pIC50 Value BRDT BD1 L/V (converted)
`CCNC(=O)C[C@@H]1N=C(c2ccc(Cl)cc2)c2cc(OC)ccc2-n2c(C)nnc21` [I-BET762, reference compound] showed an IC50 of 1 µM.

Molecular target: BRD4 BD2 WT (Homo sapiens, UniProt O60885)
Test: competitive AlphaLISA
Assay type: binding
Conditions: not given
`CCN(CC)C(=O)[C@H](C)[C@@H]1N=C(c2ccc(Cl)cc2)c2cc(OC)ccc2-n2c(C)nnc21` (relative stereo) [Compound 19] showed an IC50 of 25.1 µM.
`CCNC(=O)[C@H](CC)[C@@H]1N=C(c2ccc(Cl)cc2)c2ccc(OC)cc2-n2c(C)nnc21` (relative stereo) [Compound 22] showed an IC50 of over 100 µM.

Test system: not listed separately
Test: Intrinsic Clearance
Conditions: mouse liver microsomes
With `Cc1sc2c(c1C)C(c1ccc(Cl)cc1)=N[C@@H](CC(=O)OC(C)(C)C)c1nnc(C)n1-2` [(+)JQ1, reference compound] the CL int was 7.5 ml min^–1 g^–1.
In the case of `CCN(CC)C(=O)[C@H](C)[C@@H]1N=C(c2ccc(Cl)cc2)c2cc(OC)ccc2-n2c(C)nnc21` (relative stereo) [Compound 19], the CL int is reported as over 50 ml min^–1 g^–1.
In the case of `CCNC(=O)[C@H](CC)[C@@H]1N=C(c2ccc(Cl)cc2)c2ccc(OC)cc2-n2c(C)nnc21` (relative stereo) [Compound 22], the CL int is reported as 2.1 ml min^–1 g^–1.

Molecular target: WT BET bromodomains (BD1 and BD2 of BRD2, BRD3 and BRD4)
Test: competitive AlphaLISA (Bio-JQ1 displacement)
Assay type: binding, human
Conditions: mean and SD of all somatic bromodomains; active enantiomer concentration
In the case of `CCN(CC)C(=O)[C@H](C)[C@@H]1N=C(c2ccc(Cl)cc2)c2cc(OC)ccc2-n2c(C)nnc21` (relative stereo) [Compound 19], the “AlphaLISA pIC50 ± SD WT” value is reported as 4.9 ± 0.2.
In the case of `CCNC(=O)[C@H](CC)[C@@H]1N=C(c2ccc(Cl)cc2)c2ccc(OC)cc2-n2c(C)nnc21` (relative stereo) [Compound 22], the “AlphaLISA pIC50 ± SD WT” value is reported as under 4.0.

Molecular target: BRD4 BD2 L/V (Homo sapiens, UniProt O60885, L387V)
Test: competitive AlphaLISA
Assay type: binding
Conditions: not given
For `CCN(CC)C(=O)[C@H](C)[C@@H]1N=C(c2ccc(Cl)cc2)c2cc(OC)ccc2-n2c(C)nnc21` (relative stereo) [Compound 19], the IC50 was 1.26 µM.

Molecular target: BRD4 BD1 L/V (Homo sapiens, UniProt O60885, L94V)
Test: competitive AlphaLISA
Assay type: binding
Conditions: AlphaLISA pIC50 Value BRD4 BD1 L/V
Work on `CCN(CC)C(=O)[C@H](C)[C@@H]1N=C(c2ccc(Cl)cc2)c2cc(OC)ccc2-n2c(C)nnc21` (relative stereo) [Compound 19] yielded an IC50 of 1.26 µM.
In the case of `CCNC(=O)[C@H](CC)[C@@H]1N=C(c2ccc(Cl)cc2)c2ccc(OC)cc2-n2c(C)nnc21` (relative stereo) [Compound 22], the IC50 is reported as 7.94 µM.

Molecular target: BRD2 BD1 L/V (Homo sapiens, UniProt P25440, L110V)
Sequence (P25440 71-176 L110V limits assumed): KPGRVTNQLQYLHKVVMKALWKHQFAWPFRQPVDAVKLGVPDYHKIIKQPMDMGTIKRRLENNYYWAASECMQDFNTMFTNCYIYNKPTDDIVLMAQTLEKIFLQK
Test: competitive AlphaLISA
Assay type: binding
Conditions: not given
In the case of `CCN(CC)C(=O)[C@H](C)[C@@H]1N=C(c2ccc(Cl)cc2)c2cc(OC)ccc2-n2c(C)nnc21` (relative stereo) [Compound 19], the IC50 is reported as 1 µM.
For `CCNC(=O)[C@H](CC)[C@@H]1N=C(c2ccc(Cl)cc2)c2ccc(OC)cc2-n2c(C)nnc21` (relative stereo) [Compound 22], the IC50 was 6.31 µM.

Molecular target: BRD3 BD2 L/V (Homo sapiens, UniProt Q15059, L345V)
Sequence (Q15059 306-416 L345V limits assumed): as the sequence (Q15059 306-416) above, with L40V counted along it
Test: competitive AlphaLISA
Assay type: binding
Conditions: not given
In the case of `CCN(CC)C(=O)[C@H](C)[C@@H]1N=C(c2ccc(Cl)cc2)c2cc(OC)ccc2-n2c(C)nnc21` (relative stereo) [Compound 19], the IC50 is reported as 0.501 µM.
`CCNC(=O)[C@H](CC)[C@@H]1N=C(c2ccc(Cl)cc2)c2ccc(OC)cc2-n2c(C)nnc21` (relative stereo) [Compound 22] gave an IC50 of 3.98 µM.

Molecular target: BRD2 BD2 WT (Homo sapiens, UniProt P25440)
Sequence (P25440 344-455): as the sequence (P25440 344-455 L383V) above, with V40L counted along it
Test: competitive AlphaLISA
Assay type: binding
Conditions: not given
Compound `CCN(CC)C(=O)[C@H](C)[C@@H]1N=C(c2ccc(Cl)cc2)c2cc(OC)ccc2-n2c(C)nnc21` (relative stereo) [Compound 19] has an IC50 of 25.1 µM.
With `CCNC(=O)[C@H](CC)[C@@H]1N=C(c2ccc(Cl)cc2)c2ccc(OC)cc2-n2c(C)nnc21` (relative stereo) [Compound 22] the IC50 was over 100 µM.

Test system: not listed separately
Test: Plasma Half-life
Conditions: BALB/c, mouse, pH 7.4
`Cc1sc2c(c1C)C(c1ccc(Cl)cc1)=N[C@@H](CC(=O)OC(C)(C)C)c1nnc(C)n1-2` [(+)JQ1, reference compound] gave a half-life at 50 µM of over 3 h.
`CCN(CC)C(=O)[C@H](C)[C@@H]1N=C(c2ccc(Cl)cc2)c2cc(OC)ccc2-n2c(C)nnc21` (relative stereo) [Compound 19] gave a half-life at 50 µM of over 3 h.
With `CCNC(=O)[C@H](CC)[C@@H]1N=C(c2ccc(Cl)cc2)c2ccc(OC)cc2-n2c(C)nnc21` (relative stereo) [Compound 22] the half-life at 50 µM was over 3 h.

Test system: not listed separately
Test: in vitro
Conditions: PAMPA, pH 7.4
`CCNC(=O)[C@H](CC)[C@@H]1N=C(c2ccc(Cl)cc2)c2ccc(OC)cc2-n2c(C)nnc21` (relative stereo) [Compound 22] showed a Papp of 5.9 ×10⁻⁶ cm/s.

Molecular target: BRDT BD2 L/V (Homo sapiens, UniProt Q58F21, L306V)
Test: competitive AlphaLISA
Assay type: binding
Conditions: not given
For `CCN(CC)C(=O)[C@H](C)[C@@H]1N=C(c2ccc(Cl)cc2)c2cc(OC)ccc2-n2c(C)nnc21` (relative stereo) [Compound 19], the IC50 was 3.16 µM.
Work on `CCNC(=O)[C@H](CC)[C@@H]1N=C(c2ccc(Cl)cc2)c2ccc(OC)cc2-n2c(C)nnc21` (relative stereo) [Compound 22] yielded an IC50 of 20 µM.

Molecular target: BRD2 BD1 WT (Homo sapiens, UniProt P25440)
Sequence (P25440 71-176): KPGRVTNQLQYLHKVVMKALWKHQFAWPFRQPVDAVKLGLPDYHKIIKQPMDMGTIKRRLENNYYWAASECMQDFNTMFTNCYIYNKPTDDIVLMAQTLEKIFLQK
Test: competitive AlphaLISA
Assay type: binding
Conditions: not given
`CCNC(=O)[C@H](CC)[C@@H]1N=C(c2ccc(Cl)cc2)c2ccc(OC)cc2-n2c(C)nnc21` (relative stereo) [Compound 22] showed an IC50 of over 100 µM.

Molecular target: BRD3 BD1 WT (Homo sapiens, UniProt Q15059)
Sequence (Q15059 24-144): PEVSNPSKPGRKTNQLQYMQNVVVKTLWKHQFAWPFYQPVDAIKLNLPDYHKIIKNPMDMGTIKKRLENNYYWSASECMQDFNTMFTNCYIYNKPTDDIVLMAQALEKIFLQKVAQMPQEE
Test: competitive AlphaLISA
Assay type: binding
Conditions: not given
In the case of `CCN(CC)C(=O)[C@H](C)[C@@H]1N=C(c2ccc(Cl)cc2)c2cc(OC)ccc2-n2c(C)nnc21` (relative stereo) [Compound 19], the IC50 is reported as 5.01 µM.
With `CCNC(=O)[C@H](CC)[C@@H]1N=C(c2ccc(Cl)cc2)c2ccc(OC)cc2-n2c(C)nnc21` (relative stereo) [Compound 22] the IC50 was 63.1 µM.
